Converted amounts (≈) assume the structure as drawn.
Key:
wild-type LRRK2 = target: T1, wild-type LRRK2 (Homo sapiens, UniProt Q5S007); experiment: detection of phosphorylated S935 in HEK293T overexpressing wild-type LRRK2; assay type: cell-based; settings: pS935, HEK293T overexpressing wild-type LRRK2, 1.5 hours
T1 construct: pCMV-flag-WT LRRK2 (full-length); expressed in transfected cells; host or cells: HEK293T
Protocol: (§1) Detection of phosphorylated S935 in HEK293T Overexpressing full-length LRRK2 (G2019S) or wild-type LRRK2
(§2) HEK293T cells was inoculated into a 6-well plate and cultured overnight. The next day, they were transiently transfected with plasmid pcDNA5-FRT/TO-FLAG LRRK2 (G2019S, full-length) or pCMV-flag-WT LRRK2 (full-length) by using Superfect transfection reagent and cultured at 37°C and 5% CO2 for 20-24 hours. The next day, cells were collected, resuspended at a density of 0.48×10^6 cells/ml, and inoculated into a 384-well plate at 50 microliters/well. Compound or DMSO solutions (volume ratio of 0.5%) were added by Tecan, and cultured at 37°C and 5% CO2 for 1.5 hours. After 1.5 hours, the supernatant was discarded, 50 microliters of 8% PFA were added in each well to fix the cells, and the cells were incubated at room temperature for 1 hour. The plate was washed with EL406 plate washer for three times, with 115 microliters of PBST per well, and the culture plate was patted to dryness. The cells were blocked with 50 microliters/well of Licor Odyssey blocking solution (0.1% Tween 20) at room temperature for 1.5 hours. The blocking solution was discarded and the culture plate was patted to dryness. 20 microliters of primary antibody (1:1000(pS935), diluted with Licor Odyssey buffer (0.1% Tween20)) was added into each well, and incubated at 4 °C overnight. The next day, the first antibody was discarded and washing was performed with PBST for five times. 20 microliters of secondary antibody (diluted with Licor Odyssey buffer (0.1% Tween20) at 1:500 and stained with DNA at 1:2000) were added into each well, and incubated at room temperature for 1 hour. The second antibody was discarded, and washing was performed for three times with PBST. The fluorescence intensity was measured by LICOR Odyssey imager Scanner, and the data was analyzed.

LRRK2 = LRRK2 (Homo sapiens, UniProt Q5S007); experiment: experiment of inhibiting kinase activity, LRRK2; assay type: biochemical; settings: for IC50: kinase activity assay, Table 3
Protocol: (§3) The inhibition rates of tested compounds on JAK1, JAK2, JAK3, TYK2, CDK7, CDK9, EGFR (T790M) and LRRK2 kinases were measured. The test concentrations of the compounds were 10 nM and 100 nM, and the detection was performed by replicate wells. Alternatively, compounds were 3-fold serial diluted from 10 µM for 10 concentrations in replicate wells.

LRRK2 (G2019S) = target: T2, LRRK2 (G2019S) (Homo sapiens, UniProt Q5S007, G2019S); experiment: detection of phosphorylated S935 in HEK293T overexpressing full-length LRRK2 (G2019S); assay type: cell-based; settings: pS935, HEK293T overexpressing LRRK2 (G2019S), 1.5 hours
T2 construct: pcDNA5-FRT/TO-FLAG LRRK2 (G2019S, full-length); expressed in transfected cells; host or cells: HEK293T
Protocol: as §1, §2

[1] = measurement of the solubility of compounds in water and diluted hydrochloric acid; assay type: physicochemical; settings: thermodynamic from solid
Protocol: Example 117: measurement of the solubility of compounds in water and diluted hydrochloric acid
The compounds were dissolved in acetonitrile (LCMS pure) and prepared into standard samples having the concentration gradient of 1000 µg/mL, 500 µg/mL, 250 µg/mL, 125 µg/mL, 62.5 µg/mL, and 31.25 µg/mL.
(§4) About 1.0 mg of the powder of the compound to be tested was weighed and added to 0.3 mL of ultrapure water (pH-6), the resulting mixture was shaked thoroughly at room temperature overnight and centrifuged, and the supernatant was taken and diluted 10 times with acetonitrile. The sample was analyzed after mixing evenly.
as §4, with “153.8 µL of 6 M HCl was pipetted, 20 mL of water was added, and mixed evenly to prepare diluted hydrochloric acid solution A (pH-1.5). About” for “About”, “diluted hydrochloric acid solution A,” for “ultrapure water (pH-6),”, “for 1 hour” for “overnight”
The standard sample and the sample to be tested were analyzed by Shimadzu LCMS-2020, where chromatographic column was Skim-psck GIST 5 µm C18 2.1*[…]; mobile phase A was water and mobile phase B was methanol; and flow rate was 0.3 mL/min. The gradient of B was as the following: 0 min: 10%; 0-1.0 min: 10%; 1.0-2.5 min: 95%; 3.0-4.0 min: 95%; 4.0-4.1 min: 10%; 4.1-6.0 min: 10%.
The relationship between the concentration and peak area of the standard sample was ploted into a standard curve, and the concentration of the sample to be tested was calibrated using this standard curve. Compound solubility = concentration of the sample to be tested × 10 [formula]

CDK9 = CDK9 (Homo sapiens, UniProt P50750); experiment: experiment of inhibiting kinase activity (Caliper mobility shift assay), CDK9; assay type: biochemical; settings: for inhibition at 0.01 µM: at 10 nM; for IC50: kinase activity assay, Table 3
In short: (§5)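 Steps: compound and kinase in 1× kinase buffer, 10 min at room temperature; ATP plus substrate added to start; reaction run at room temperature, then stopped. Conversion read by Caliper; IC50 from four-parameter variable-slope fit of % inhibition against log concentration.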

CDK7 = CDK7 (Homo sapiens, UniProt P50613); experiment: experiment of inhibiting kinase activity (Caliper mobility shift assay), CDK7; assay type: biochemical; settings: at 100 nM; read-out: inhibition rate CDK7
In short: as §5

JAK1 = JAK1 (Homo sapiens, UniProt P23458); experiment: experiment of inhibiting kinase activity (Caliper mobility shift assay), JAK1; assay type: biochemical; settings: read-out: inhibition rate JAK1; for inhibition at 0.01 µM: at 10 nM
In short: as §5

JAK2 = JAK2 (Homo sapiens, UniProt O60674); experiment: experiment of inhibiting kinase activity (Caliper mobility shift assay), JAK2; assay type: biochemical; settings: read-out: inhibition rate JAK2; for inhibition at 0.01 µM: at 10 nM
In short: as §5

TYK2 = TYK2 (Homo sapiens, UniProt P29597); experiment: experiment of inhibiting kinase activity, TYK2; assay type: biochemical; settings: read-out: inhibition rate TYK2; for inhibition at 0.01 µM: at 10 nM
Protocol: as §3

MV-4-11 cells = experiment: CDK9 cell activity test (Cell Titer-GLO cell growth inhibition), MV-4-11; assay type: cell-based; settings: Homo sapiens, MV4-11, 72 hours
Protocol: In these experiments, the cell line MV-4-11 was cultured in IMDM culture solution (containing 100 U/mL penicillin and 0.1 g/L streptomycin), the cell line HCC1187 was cultured in RPMI-1640 culture solution (containing 100 U/mL penicillin and 0.1 g/L streptomycin) containing 10% fetal bovine serum, the cell line Mia Paca-2 was cultured in DMEM (containing 100 U/mL penicillin and 0.1 g/L streptomycin) containing 10% fetal bovine serum and 2.5% horse serum, and the cell line A375 was cultured in RPMI-1640 culture solution (containing 100 U/mL penicillin and 0.1 g/L streptomycin) containing 10% fetal bovine serum. All cells were cultured in a saturated humidity incubator with 37 °C and 5% CO2.
When MV-4-11 cells, HCC-1187 cells, Mia Paca-2 cells and A375 cells grew to 80% -90% confleuncy, they were digested with trypsin, resuspended, counted and diluted to a certain cell density with complete medium, and inoculated into 96-well plate at 100 µL/well. With complete medium as background control, they were cultured overnight in a saturated humidity incubator with 37°C and 5% CO2. The compound was diluted to 200-fold of the final concentration using DMSO, 3 µL of DMSO storage solution of the above compound was added to 197 µL of complete medium, 50 µL of compound diluted in medium was added to cells in each well, and cultivated in a saturated humidity incubator with 37°C and 5% CO2 for 72 hours. After 72 hours, the culture plate was placed at room temperature for equilibrium, and 40 µl of Cell Titer-GLO® reagent was added to each well. The cells were lysed by mixing evenly for 2 minutes using a shaker, incubated at room temperature for 60 minutes to stabilize the chemiluminescence signal, and the chemiluminescence was read by PE EnVision microtiter plate reader. The cell growth inhibition rate Inh%=(DMSO well - compound treatment well)/(DMSO well - background well)×100 was calculated, and the cell growth IC50 value was obtained by fitting with GraphPad Prism 5 .

JAK3 = target: T3, JAK3 (Homo sapiens, UniProt P52333); experiment: experiment of inhibiting kinase activity (Caliper mobility shift assay), JAK3; assay type: biochemical; settings: at 100 nM; read-out: inhibition rate JAK3
T3 sequence (P52333 1-1124): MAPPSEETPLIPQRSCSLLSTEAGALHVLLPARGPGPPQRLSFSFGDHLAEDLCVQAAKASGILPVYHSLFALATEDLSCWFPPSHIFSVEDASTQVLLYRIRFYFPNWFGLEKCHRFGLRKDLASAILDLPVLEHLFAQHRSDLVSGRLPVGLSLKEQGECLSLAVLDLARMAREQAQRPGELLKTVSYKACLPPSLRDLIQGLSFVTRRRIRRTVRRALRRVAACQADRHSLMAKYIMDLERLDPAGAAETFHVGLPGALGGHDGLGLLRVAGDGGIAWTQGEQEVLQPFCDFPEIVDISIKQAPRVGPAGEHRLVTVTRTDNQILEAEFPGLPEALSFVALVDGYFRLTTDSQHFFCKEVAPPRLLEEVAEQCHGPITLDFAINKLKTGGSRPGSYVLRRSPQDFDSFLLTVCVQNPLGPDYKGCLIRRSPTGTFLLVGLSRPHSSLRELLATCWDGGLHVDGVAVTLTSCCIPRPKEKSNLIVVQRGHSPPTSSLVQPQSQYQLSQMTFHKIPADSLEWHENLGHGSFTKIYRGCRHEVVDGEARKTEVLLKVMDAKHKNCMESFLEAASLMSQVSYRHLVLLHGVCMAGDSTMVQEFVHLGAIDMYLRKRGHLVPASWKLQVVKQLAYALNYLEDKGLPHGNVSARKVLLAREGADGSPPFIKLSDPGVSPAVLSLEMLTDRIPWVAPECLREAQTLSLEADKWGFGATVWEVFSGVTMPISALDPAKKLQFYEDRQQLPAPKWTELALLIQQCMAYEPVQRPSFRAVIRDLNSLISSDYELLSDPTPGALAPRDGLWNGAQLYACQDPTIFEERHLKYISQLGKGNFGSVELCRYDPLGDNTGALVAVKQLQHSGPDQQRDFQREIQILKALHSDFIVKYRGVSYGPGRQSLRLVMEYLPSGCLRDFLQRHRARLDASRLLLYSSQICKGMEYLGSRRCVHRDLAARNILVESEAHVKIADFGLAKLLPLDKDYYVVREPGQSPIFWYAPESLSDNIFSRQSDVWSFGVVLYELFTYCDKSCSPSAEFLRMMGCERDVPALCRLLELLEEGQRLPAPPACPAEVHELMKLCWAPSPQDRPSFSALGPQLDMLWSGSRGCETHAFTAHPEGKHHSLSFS
In short: as §5

JAK1, sequence (P23458 whole entry): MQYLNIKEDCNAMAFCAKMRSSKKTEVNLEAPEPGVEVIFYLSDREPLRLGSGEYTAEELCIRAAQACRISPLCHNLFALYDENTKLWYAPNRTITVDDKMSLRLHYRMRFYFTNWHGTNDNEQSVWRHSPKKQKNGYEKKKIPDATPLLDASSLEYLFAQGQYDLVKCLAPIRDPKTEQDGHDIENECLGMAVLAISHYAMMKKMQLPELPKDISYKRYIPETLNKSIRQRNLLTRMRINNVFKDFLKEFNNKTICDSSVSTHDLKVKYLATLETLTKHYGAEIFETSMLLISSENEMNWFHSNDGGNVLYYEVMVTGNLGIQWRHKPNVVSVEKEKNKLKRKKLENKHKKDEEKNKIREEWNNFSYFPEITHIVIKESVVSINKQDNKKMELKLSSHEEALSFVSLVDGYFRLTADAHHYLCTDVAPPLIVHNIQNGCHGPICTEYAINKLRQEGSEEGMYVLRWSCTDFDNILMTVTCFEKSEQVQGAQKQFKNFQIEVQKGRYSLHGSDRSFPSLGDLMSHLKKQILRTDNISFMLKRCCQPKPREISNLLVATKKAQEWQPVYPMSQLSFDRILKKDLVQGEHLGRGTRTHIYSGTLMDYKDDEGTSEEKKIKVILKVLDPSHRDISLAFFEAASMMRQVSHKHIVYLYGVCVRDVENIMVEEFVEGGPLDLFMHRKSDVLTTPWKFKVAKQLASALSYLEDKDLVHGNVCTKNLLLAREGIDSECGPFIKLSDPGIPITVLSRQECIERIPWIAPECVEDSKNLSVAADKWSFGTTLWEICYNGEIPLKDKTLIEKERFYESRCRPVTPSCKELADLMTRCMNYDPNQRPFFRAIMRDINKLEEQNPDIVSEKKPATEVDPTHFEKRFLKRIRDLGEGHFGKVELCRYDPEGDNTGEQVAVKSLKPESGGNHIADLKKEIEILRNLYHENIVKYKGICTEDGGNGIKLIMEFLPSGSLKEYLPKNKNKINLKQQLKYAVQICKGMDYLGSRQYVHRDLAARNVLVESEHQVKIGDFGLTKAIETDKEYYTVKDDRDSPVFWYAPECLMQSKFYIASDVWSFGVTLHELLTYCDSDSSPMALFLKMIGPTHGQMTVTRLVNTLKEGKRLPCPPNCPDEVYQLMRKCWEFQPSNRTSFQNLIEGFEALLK
CDK9, sequence (P50750 whole entry): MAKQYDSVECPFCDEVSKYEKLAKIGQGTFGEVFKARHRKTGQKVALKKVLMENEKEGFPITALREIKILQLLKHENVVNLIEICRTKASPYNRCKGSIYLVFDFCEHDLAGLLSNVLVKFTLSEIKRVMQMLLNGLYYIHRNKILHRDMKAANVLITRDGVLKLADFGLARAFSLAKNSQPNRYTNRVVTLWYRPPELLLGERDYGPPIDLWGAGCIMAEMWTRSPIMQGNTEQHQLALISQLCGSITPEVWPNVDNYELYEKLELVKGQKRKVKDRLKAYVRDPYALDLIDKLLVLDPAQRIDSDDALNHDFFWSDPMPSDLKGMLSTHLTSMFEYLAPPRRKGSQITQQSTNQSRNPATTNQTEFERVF
CDK9, sequence (O60563 whole entry partner): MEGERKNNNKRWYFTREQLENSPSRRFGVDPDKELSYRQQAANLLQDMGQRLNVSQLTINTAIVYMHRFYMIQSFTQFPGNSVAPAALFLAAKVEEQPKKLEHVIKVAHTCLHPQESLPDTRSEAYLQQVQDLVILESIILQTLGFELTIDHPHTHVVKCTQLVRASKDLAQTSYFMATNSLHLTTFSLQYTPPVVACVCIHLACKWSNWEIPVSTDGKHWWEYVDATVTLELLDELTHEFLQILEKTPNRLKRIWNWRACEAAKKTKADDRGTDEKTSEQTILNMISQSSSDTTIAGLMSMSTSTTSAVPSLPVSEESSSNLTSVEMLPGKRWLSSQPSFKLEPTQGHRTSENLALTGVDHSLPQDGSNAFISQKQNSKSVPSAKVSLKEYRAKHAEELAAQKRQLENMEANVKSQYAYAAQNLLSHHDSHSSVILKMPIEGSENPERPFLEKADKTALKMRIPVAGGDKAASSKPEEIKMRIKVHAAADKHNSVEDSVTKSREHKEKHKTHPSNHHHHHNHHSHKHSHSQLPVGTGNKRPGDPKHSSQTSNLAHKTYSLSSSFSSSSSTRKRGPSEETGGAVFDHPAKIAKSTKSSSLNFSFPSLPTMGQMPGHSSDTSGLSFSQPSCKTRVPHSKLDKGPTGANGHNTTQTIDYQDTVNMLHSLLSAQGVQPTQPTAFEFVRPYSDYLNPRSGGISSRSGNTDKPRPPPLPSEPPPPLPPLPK
TYK2, sequence (P29597 whole entry): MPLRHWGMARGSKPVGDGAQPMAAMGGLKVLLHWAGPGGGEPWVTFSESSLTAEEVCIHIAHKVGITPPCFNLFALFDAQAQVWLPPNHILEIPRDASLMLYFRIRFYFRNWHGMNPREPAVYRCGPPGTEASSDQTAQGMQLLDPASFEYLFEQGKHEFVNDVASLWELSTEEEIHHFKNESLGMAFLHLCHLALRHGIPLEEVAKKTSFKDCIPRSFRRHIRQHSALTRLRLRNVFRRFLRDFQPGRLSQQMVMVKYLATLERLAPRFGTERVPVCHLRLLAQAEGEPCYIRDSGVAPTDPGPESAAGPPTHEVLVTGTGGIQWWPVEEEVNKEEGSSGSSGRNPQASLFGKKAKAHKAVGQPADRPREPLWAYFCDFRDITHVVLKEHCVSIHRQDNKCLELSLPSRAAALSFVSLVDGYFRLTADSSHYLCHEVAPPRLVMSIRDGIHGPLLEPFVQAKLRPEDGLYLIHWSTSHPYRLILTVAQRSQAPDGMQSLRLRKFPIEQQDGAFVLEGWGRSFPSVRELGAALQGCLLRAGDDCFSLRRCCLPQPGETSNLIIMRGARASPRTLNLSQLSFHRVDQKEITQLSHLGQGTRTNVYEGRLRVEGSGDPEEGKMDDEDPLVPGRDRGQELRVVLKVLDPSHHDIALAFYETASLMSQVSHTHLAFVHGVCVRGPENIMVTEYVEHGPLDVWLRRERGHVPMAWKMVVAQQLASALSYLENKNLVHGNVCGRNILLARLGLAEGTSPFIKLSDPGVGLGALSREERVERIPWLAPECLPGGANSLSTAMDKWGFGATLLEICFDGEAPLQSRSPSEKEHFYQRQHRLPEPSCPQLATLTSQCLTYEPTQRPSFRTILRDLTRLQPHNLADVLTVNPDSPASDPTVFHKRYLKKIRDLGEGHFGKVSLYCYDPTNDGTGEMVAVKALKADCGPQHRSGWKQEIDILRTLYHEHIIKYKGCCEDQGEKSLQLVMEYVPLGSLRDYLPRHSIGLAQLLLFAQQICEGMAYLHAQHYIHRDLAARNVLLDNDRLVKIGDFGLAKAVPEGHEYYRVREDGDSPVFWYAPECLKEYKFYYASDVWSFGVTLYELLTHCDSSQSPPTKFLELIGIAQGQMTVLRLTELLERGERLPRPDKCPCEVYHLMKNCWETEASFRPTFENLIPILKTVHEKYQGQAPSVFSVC
JAK2, sequence (O60674 whole entry): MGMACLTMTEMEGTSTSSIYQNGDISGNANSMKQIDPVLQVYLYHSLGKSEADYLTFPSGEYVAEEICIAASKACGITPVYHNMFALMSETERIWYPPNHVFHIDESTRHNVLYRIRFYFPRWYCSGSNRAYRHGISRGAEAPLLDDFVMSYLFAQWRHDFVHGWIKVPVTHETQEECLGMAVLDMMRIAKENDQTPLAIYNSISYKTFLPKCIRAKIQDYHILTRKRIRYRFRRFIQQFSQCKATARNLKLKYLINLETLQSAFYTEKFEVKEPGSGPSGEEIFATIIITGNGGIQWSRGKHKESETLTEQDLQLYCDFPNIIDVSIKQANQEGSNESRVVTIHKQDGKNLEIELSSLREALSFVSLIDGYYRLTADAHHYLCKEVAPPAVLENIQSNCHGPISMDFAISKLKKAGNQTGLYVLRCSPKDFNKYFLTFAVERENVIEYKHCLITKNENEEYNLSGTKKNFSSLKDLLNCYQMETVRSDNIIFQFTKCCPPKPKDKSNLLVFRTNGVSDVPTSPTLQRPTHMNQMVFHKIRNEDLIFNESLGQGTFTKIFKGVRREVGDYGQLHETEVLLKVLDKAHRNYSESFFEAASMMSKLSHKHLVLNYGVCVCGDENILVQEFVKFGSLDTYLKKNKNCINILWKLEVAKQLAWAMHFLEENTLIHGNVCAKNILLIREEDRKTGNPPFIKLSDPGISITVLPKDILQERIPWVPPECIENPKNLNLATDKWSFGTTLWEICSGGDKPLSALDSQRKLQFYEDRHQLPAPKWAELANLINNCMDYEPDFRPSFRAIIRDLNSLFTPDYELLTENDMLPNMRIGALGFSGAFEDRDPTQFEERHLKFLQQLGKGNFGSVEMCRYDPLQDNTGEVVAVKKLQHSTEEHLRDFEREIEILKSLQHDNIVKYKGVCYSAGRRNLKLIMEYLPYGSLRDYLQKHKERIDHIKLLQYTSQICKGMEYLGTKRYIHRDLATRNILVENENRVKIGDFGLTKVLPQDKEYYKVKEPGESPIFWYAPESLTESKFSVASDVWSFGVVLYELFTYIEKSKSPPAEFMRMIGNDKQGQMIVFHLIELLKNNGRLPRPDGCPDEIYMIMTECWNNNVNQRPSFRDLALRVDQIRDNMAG

SMILES	EC50 (wild-type LRRK2) [µM]	IC50 (LRRK2) [µM]	EC50 (LRRK2 (G2019S)) [µM]	solubility at 1 h ([1]; simulated gastric fluid, diluted hydrochloric acid solution A (pH-1.5), room temperature, 1 hour) [µg/mL]	solubility ([1]; ultrapure water (pH-6), room temperature overnight) [µg/mL]	inhibition at 0.1 µM (LRRK2; at 100 nM, read-out: inhibition rate LRRK2) [%]	inhibition at 0.01 µM (CDK9; read-out: inhibition rate CDK9) [%]	inhibition at 0.1 µM (CDK9; at 100 nM, read-out: inhibition rate CDK9) [%]	IC50 (CDK9) [µM]	inhibition at 0.1 µM (CDK7) [%]	inhibition at 0.01 µM (JAK1) [%]	inhibition at 0.1 µM (JAK1; at 100 nM) [%]	inhibition at 0.01 µM (JAK2) [%]	inhibition at 0.1 µM (JAK2; at 100 nM) [%]	inhibition at 0.01 µM (TYK2) [%]	inhibition at 0.1 µM (TYK2; at 100 nM) [%]	IC50 (MV-4-11 cells) [µM]	inhibition at 0.1 µM (JAK3) [%]	inhibition at 0.01 µM (LRRK2; at 10 nM, read-out: inhibition rate LRRK2) [%]
CN1CCOCCOc2ccc(Nc3nc(O[C@H]4CC[C@@](C)(O)CC4)c4cc[nH]c4n3)cc2OCC1 [Example 6, 1-methyl-4-((2-((7-methyl-2,3,6,7,8,9-hexahydro-5H-benzo[b][1,4,7]trioxa[10]azacyclododecan-12-yl)amino)-7H-pyrrolo[2,3-d]pyrimidin-4-yl)oxy)cyclohexanol]	< 0.5	< 0.05	< 0.5	> 3070	368 (≈ 740 µM)														
CN1CCOCCOc2ccc(Nc3ncc(F)c(-c4ccc(C(=O)NCC#N)cc4)n3)cc2OCC1 [Example 44, N-(cyanomethyl)-4-(5-fluoro-2-((7-methyl-2,3,6,7,8,9-hexahydro-5H-benzo[b] [1,4,7]trioxa[10]azacyclododecan-12-yl)amino)pyrimidin-4-yl)benzamide]						40 to 79	40 to 79	> 80	< 0.05	40 to 79	25 to 39	> 80	> 80	> 80	40 to 79	> 80	< 0.1	40 to 79	
CN1CCOc2ccc(Nc3ncc(C(F)(F)F)c(Nc4ccccc4P(C)(C)=O)n3)cc2OCC1 [Example 83, dimethyl(2-((2-((4-methyl-3,4,5,6-tetrahydro-2H-benzo[b][1,4,7]dioxazolin-9-yl)amino)-5-(trifluoromethyl)pyrimidin-4-yl)amino)phenyl)phosphine oxide]	< 0.5	< 0.05	< 0.5								25 to 39		> 80		40 to 79				> 80
COc1ccc(F)cc1-c1nc(Nc2ccc3c(c2)OCCN(C)CCOCCO3)ncc1F [Example 114, N-(5-fluoro-4-(5-fluoro-2-methoxyphenyl)pyrimidin-2-yl)-7-methyl-2,3,6,7,8,9-hexahydro-5H-benzo[b][1,4,7]trioxa[10]azacyclododecan-12-amine]							40 to 79		< 0.05								0.1 to 1		
